Assay results: US11358949B2, “Carbamate and urea compounds as multikinase inhibitors” (ANGEX PHARMACEUTICAL, INC., priority 2017, dated 2022)

Tests used:
LCK = LCK (Homo sapiens, UniProt P06239); assay: HotSpot Kinase Assay, LCK
Description: (§1) Specifically, for each reaction, kinase and substrate were mixed in a pH 7.5 buffer containing 20 mM HEPES, 10 mM MgCl2, 1 mM EGTA [Ethylene glycol-bis(2-aminoethylether)-N,N,N′,N′-tetraacetic acid], 0.02% Brij35, 0.02 mg/mL BSA (Bovine Serum Albumin), 0.1 mM Na3VO4, 2 mM DTT, and 1% DMSO. Compounds were then added to each reaction mixture. After a 20-min incubation, ATP (Sigma-Aldrich) and [γ-^33P] ATP (PerkinElmer) were added at a final total concentration of 100 μM. Reactions were carried out at room temperature for 2 hours and spotted onto P81 ion exchange cellulose chromatography paper (Whatman). […] The percent remaining kinase activity relative to a vehicle-containing (DMSO) kinase reaction was calculated for each kinase/inhibitor pair. […] IC50 values were calculated using Prism 5 (GraphPad).

HPK4 = HPK4 (Homo sapiens, UniProt Q8NE63); assay: HotSpot Kinase Assay, HPK4
Description: as §1

LOK/STK10 = LOK/STK10 (Homo sapiens, UniProt O94804); assay: HotSpot Kinase Assay, LOK/STK10
Description: as §1

FMS = FMS (Homo sapiens, UniProt P07333); assay: HotSpot Kinase Assay, FMS
Description: as §1

RON/MST1R = RON/MST1R (Homo sapiens, UniProt Q04912); assay: HotSpot Kinase Assay, RON/MST1R
Description: as §1

FLT3 = FLT3 (Homo sapiens, UniProt P36888); assay: HotSpot Kinase Assay, FLT3
Description: as §1

DDR1 = DDR1 (Homo sapiens, UniProt Q08345); assay: HotSpot Kinase Assay, DDR1
Description: as §1

RET = RET (Homo sapiens, UniProt P07949); assay: HotSpot Kinase Assay, RET
Description: as §1

EPHA1 = EPHA1 (Homo sapiens, UniProt P21709); assay: HotSpot Kinase Assay, EPHA1
Description: as §1

FLT1 = FLT1 (Homo sapiens, UniProt P17948); assay: HotSpot Kinase Assay, FLT1
Description: as §1

TYRO3/SKY = target: T1, TYRO3/SKY (Homo sapiens, UniProt Q06418); assay: HotSpot Kinase Assay, TYRO3/SKY
T1 sequence (Q06418 41-890): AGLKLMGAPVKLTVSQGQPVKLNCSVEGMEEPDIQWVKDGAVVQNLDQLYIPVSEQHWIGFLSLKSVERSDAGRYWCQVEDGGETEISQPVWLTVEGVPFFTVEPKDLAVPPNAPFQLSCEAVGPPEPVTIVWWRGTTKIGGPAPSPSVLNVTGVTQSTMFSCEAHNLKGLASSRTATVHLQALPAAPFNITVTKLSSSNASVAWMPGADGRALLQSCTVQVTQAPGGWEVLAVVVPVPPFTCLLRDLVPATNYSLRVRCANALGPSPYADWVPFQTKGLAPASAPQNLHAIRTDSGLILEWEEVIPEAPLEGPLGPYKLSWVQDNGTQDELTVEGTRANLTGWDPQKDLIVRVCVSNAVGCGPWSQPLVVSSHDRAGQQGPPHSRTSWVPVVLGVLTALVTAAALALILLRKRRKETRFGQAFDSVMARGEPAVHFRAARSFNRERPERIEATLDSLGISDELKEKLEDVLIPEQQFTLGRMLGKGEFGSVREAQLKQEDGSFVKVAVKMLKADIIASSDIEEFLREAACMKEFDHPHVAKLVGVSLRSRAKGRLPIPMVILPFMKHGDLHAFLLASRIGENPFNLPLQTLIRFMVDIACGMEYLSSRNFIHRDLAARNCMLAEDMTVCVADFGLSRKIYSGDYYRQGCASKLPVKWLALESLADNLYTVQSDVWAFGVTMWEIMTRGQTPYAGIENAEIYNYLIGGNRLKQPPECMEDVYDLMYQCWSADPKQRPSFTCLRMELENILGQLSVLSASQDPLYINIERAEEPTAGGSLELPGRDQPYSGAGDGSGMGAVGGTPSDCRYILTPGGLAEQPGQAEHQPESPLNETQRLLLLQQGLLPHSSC
Description: as §1

DDR2 = DDR2 (Homo sapiens, UniProt Q16832); assay: HotSpot Kinase Assay, DDR2
Description: as §1

MNK2 = MNK2 (Homo sapiens, UniProt Q9HBH9); assay: HotSpot Kinase Assay, MNK2
Description: as §1

c-Kit = c-Kit (Homo sapiens, UniProt P10721); assay: HotSpot Kinase Assay, c-Kit
Description: as §1

TIE2/TEK = TIE2/TEK (Homo sapiens, UniProt Q02763); assay: HotSpot Kinase Assay, TIE2/TEK
Description: as §1

EPHA3 = EPHA3 (Homo sapiens, UniProt P29320); assay: HotSpot Kinase Assay, EPHA3
Description: as §1

PDGFβ = PDGFβ (Homo sapiens, UniProt P09619); assay: HotSpot Kinase Assay, PDGFβ
Description: as §1

KHS/MAP4K5 = KHS/MAP4K5 (Homo sapiens, UniProt Q9Y4K4); assay: HotSpot Kinase Assay, KHS/MAP4K5
Description: as §1

BLK = BLK (Homo sapiens, UniProt P51451); assay: HotSpot Kinase Assay, BLK
Description: as §1

TRKA = TRKA (Homo sapiens, UniProt P04629); assay: HotSpot Kinase Assay, TRKA
Description: as §1

CDK7/cyclin H = CDK7/cyclin H (Homo sapiens, UniProt P50613); assay: HotSpot Kinase Assay, CDK7/cyclin H
Description: as §1

Measured: IC50

Sequence of LOK/STK10 (O94804 whole entry): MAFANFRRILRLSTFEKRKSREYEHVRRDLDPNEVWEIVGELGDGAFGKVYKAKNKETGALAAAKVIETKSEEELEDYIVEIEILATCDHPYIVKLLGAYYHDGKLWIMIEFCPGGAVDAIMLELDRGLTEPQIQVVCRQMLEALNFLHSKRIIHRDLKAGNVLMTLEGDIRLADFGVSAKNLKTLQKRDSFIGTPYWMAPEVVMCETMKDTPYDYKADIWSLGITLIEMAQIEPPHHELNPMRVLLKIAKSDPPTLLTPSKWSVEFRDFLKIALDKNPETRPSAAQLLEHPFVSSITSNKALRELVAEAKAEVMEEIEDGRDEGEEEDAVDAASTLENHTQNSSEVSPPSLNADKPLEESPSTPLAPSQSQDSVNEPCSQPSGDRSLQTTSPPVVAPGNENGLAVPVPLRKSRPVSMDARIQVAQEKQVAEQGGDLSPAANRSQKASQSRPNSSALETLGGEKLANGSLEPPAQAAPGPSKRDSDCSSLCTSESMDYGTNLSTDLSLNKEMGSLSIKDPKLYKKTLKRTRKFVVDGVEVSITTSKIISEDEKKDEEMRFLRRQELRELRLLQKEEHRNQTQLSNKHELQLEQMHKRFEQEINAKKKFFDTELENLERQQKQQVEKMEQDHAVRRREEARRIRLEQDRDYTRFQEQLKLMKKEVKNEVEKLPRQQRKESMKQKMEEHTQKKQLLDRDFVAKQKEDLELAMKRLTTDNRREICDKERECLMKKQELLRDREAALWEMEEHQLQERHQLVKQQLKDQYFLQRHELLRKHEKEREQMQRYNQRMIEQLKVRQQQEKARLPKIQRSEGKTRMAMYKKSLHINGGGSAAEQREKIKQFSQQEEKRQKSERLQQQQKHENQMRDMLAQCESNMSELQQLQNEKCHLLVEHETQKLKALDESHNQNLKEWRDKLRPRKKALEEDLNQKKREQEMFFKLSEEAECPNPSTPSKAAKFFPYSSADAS
Sequence of EPHA1 (P21709 26-976): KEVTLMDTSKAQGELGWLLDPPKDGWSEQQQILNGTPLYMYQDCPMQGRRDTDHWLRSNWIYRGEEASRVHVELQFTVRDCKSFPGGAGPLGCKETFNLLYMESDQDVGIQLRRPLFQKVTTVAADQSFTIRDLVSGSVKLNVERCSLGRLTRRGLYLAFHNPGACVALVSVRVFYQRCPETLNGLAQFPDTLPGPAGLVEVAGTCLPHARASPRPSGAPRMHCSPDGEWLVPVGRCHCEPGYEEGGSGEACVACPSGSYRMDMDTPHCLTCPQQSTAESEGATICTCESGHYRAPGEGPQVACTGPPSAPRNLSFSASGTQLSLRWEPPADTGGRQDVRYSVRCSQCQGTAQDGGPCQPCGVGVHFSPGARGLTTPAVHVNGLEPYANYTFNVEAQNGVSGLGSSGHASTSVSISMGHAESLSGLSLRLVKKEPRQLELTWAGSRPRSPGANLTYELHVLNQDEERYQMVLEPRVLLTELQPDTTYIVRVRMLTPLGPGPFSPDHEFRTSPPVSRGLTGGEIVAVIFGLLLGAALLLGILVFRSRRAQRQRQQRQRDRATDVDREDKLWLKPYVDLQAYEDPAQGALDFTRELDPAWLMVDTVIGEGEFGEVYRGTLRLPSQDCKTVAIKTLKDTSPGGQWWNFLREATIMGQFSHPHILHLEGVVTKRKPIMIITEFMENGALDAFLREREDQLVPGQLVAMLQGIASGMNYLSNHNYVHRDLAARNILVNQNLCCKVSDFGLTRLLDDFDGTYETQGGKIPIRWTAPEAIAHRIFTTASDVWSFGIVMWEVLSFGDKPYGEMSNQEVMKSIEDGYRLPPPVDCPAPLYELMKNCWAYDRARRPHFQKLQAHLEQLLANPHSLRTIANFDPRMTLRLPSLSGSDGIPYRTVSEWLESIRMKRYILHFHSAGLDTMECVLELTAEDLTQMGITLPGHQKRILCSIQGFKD
Sequence of HPK4 (Q8NE63 whole entry): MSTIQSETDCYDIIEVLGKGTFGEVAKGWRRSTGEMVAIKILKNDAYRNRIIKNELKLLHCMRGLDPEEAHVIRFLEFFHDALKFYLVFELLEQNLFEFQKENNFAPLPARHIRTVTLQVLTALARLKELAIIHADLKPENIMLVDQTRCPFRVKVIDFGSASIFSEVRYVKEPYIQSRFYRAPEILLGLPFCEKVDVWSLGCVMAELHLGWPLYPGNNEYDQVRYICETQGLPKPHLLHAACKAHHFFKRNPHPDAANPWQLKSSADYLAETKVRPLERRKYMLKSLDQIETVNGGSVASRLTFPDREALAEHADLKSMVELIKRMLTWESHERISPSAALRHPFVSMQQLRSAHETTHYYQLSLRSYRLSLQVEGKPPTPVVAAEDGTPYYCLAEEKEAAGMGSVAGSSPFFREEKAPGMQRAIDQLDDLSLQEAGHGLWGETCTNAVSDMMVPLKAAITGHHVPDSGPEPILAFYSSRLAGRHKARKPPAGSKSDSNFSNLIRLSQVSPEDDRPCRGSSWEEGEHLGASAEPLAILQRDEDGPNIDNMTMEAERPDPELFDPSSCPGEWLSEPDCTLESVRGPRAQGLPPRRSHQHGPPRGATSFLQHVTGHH
Sequence of BLK (P51451 whole entry): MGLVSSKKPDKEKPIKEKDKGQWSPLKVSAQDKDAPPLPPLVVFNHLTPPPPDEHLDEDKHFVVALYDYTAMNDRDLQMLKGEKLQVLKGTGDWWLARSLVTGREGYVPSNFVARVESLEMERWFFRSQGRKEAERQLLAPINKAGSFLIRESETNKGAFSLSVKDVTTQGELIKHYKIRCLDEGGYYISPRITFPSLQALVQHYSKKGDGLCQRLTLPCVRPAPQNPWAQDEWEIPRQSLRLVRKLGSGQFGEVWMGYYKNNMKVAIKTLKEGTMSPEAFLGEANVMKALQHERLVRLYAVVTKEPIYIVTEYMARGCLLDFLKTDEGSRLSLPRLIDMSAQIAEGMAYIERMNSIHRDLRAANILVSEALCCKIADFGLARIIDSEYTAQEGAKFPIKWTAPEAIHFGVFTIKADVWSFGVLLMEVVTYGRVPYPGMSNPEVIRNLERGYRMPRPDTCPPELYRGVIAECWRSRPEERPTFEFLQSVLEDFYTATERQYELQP
Sequence of FLT3 (P36888 27-993): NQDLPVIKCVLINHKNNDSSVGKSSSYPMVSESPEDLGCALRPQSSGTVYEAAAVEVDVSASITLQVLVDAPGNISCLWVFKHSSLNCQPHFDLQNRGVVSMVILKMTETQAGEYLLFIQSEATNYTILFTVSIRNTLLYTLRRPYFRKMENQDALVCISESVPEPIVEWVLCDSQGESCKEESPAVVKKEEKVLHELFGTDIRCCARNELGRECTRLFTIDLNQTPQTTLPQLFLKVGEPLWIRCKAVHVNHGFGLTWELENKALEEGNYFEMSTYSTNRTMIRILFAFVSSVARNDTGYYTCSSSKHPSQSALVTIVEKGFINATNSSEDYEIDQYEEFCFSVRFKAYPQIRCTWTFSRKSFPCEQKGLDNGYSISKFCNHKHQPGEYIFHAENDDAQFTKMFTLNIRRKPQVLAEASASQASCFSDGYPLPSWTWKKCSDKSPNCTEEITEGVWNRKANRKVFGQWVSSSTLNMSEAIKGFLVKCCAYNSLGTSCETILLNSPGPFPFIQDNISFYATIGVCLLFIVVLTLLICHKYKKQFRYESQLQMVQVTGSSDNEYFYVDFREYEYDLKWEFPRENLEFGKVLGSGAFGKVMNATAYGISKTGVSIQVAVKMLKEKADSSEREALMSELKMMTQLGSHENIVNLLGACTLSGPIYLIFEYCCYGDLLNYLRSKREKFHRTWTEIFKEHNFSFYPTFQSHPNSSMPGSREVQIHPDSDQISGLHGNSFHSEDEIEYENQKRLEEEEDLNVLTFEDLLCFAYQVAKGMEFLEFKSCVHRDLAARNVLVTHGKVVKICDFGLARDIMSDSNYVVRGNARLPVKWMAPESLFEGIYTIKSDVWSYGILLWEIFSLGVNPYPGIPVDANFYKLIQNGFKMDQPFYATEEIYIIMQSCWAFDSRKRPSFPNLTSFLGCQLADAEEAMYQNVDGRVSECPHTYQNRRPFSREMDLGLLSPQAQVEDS
Sequence of LCK (P06239 whole entry): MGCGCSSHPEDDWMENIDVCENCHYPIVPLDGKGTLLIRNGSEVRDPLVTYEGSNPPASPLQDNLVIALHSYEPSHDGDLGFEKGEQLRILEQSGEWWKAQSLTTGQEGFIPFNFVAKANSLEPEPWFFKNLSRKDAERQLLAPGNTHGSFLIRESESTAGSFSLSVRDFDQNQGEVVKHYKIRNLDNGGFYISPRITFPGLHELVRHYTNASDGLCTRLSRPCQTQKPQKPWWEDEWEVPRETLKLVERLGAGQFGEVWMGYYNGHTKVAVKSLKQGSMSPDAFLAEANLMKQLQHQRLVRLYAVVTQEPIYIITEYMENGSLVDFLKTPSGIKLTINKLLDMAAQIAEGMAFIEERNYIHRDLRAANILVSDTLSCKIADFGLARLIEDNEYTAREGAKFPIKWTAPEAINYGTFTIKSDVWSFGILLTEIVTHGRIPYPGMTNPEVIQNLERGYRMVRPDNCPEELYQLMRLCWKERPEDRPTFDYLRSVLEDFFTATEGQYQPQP
Sequence of MNK2 (Q9HBH9 whole entry): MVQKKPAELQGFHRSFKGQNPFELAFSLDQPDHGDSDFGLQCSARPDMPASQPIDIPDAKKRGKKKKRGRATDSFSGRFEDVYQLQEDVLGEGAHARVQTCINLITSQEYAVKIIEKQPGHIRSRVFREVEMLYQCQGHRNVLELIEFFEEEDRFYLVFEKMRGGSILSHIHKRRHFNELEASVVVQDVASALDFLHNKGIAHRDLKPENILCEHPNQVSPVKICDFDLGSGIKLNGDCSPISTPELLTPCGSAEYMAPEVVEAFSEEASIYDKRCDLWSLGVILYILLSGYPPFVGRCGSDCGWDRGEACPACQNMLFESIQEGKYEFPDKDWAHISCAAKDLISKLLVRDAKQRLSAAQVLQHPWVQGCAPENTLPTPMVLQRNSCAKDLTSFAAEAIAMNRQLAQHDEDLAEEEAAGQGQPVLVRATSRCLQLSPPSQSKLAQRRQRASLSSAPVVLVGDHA

COc1cc2c(Oc3ccc(NC(=O)C4(C(=O)Nc5ccc(F)cc5)CC4)cc3)ccnc2cc1OC(=O)N1CCN(C)CC1 [Compound 1-10]
100 to 1000 nM: LCK | LOK/STK10 | RET | FLT1 | TYRO3/SKY | MNK2 | EPHA3 | PDGFβ
> 1000 nM: RON/MST1R | EPHA1 | TIE2/TEK | KHS/MAP4K5 | BLK | CDK7/cyclin H
< 100 nM: HPK4 | FMS | FLT3 | DDR1 | DDR2 | c-Kit | TRKA
